# Literature values as cited in patent publication US20110008431A1, “THERAPEUTIC TABLET FOR POSTHERPETIC NEURALGIA AND METHOD OF TREATING POSTHERPETIC NEURALGIA” (TOYO BOSEKI KABUSHIKI KAISHA, priority 2007, published 2011).
# System: patient with neuropathic pain
# Details: devazepide in combination with an opioid analgesic agent such as morphine, Patent Document 1
structure (smiles),measurement,value
CN1C(=O)[C@@H](NC(=O)c2cc3ccccc3[nH]2)N=C(c2ccccc2)c2ccccc21 [devazepide],subjects who attained pain relief,10 of 41
